Experimental data reported in US20240327334A1, “Covalent Inhibitors As Antiviral Agents” (Enanta Pharmaceuticals, Inc., priority 2022, published 2024).

Experiments:
[1] = test system: SARS-CoV-2 replicon; test: microbe, parasite or virus in culture; type: cell-based; details: Severe acute respiratory syndrome coronavirus 2, Huh-7
[2] = target: SARS-CoV-2 Papain-like (PLpro) protease (Severe acute respiratory syndrome coronavirus 2, UniProt P0DTD1); test: SARS-CoV-2 Papain-like (PLpro) protease biochemical enzyme inhibition assay (ubiquitin-fluorophore substrate, Ub-R110); details: Ub-R110 substrate; run in duplicate; read-out: PLpro IC50

CON(C)C(=O)/C=C/CNC(=O)C(=O)NCc1ccccc1C(=O)NC1(c2cccc3ccccc23)CC1 [Example 573]
EC50 [1]: 1000 to 10000 nM | IC50 [2]: 100 to 1000 nM

N#CCNC(=O)C(=O)NCc1ccccc1C(=O)NC1(c2ccc(F)c(-c3cnn(C4CC4)c3)c2)CC1 [Example 221]
EC50 [1]: 1000 to 10000 nM | IC50 [2]: < 100 nM

C[C@@H](C#Cc1ccc(C#N)cc1C(F)(F)F)NC(=O)C(=O)NCc1ccccc1C(=O)NC1(c2ccc3nn(C)cc3c2)CC1 [Example 109]
EC50 [1]: < 1000 nM | IC50 [2]: < 100 nM

O=C(NC/C=C/C(=O)N1CC(F)(F)C1)C(=O)NCc1ccccc1C(=O)NC1(c2cccc3ccccc23)CC1 [Example 554]
EC50 [1]: 1000 to 10000 nM | IC50 [2]: 100 to 1000 nM

O=C(NCC#Cc1nccs1)C(=O)NCc1ccccc1C(=O)NC1(c2ccc3nc(C4CC4)ccc3c2)CC1 [Example 396]
EC50 [1]: < 1000 nM | IC50 [2]: < 100 nM

N#Cc1nc(C#CCNC(=O)C(=O)NCc2ccccc2C(=O)NC2(c3ccc4ccccc4c3)CC2)ccc1Cl [Example 194]
EC50 [1]: < 1000 nM | IC50 [2]: < 100 nM

O=C(NCC#Cc1nccs1)C(=O)NCc1cccnc1C(=O)NC1(c2cc(F)cc(-c3cnn(C4CC4)c3)c2)CC1 [Example 84]
EC50 [1]: < 1000 nM | IC50 [2]: < 100 nM

Cc1cccnc1C#CCNC(=O)C(=O)NCc1ccccc1C(=O)NC1(c2ccc3nn(C)cc3c2)CC1 [Example 271]
EC50 [1]: < 1000 nM | IC50 [2]: < 100 nM

Cn1cc2cc(C3(NC(=O)c4ccccc4CNC(=O)C(=O)NCC#Cc4ccccc4C#N)CC3)ccc2n1 [Example 104]
EC50 [1]: < 1000 nM | IC50 [2]: < 100 nM

Cn1ncc2cc(C3(NC(=O)c4ccccc4CNC(=O)C(=O)NCC#Cc4nccs4)CC3)ccc21 [Example 345]
EC50 [1]: < 1000 nM | IC50 [2]: < 100 nM

O=C(C#CCNC(=O)C(=O)NCc1ccccc1C(=O)NC1(c2cccc3ccccc23)CC1)N[C@H]1CC[C@H](C(F)(F)F)CC1 [Example 520]
EC50 [1]: < 1000 nM | IC50 [2]: < 100 nM

C#CCNC(=O)C(=O)NCc1ccccc1C(=O)NC1(c2ccc3c4c(cccc24)CC3)CC1 [Example 441, N1-(2-((1-(1,2-dihydroacenaphthylen-5-yl)cyclopropyl)carbamoyl)benzyl)-N2-(prop-2-yn-1-yl)oxalamide]
EC50 [1]: < 1000 nM | IC50 [2]: < 100 nM

O=C(NCC#Cc1cccc(F)n1)C(=O)NCc1ccccc1C(=O)NC1(c2ccc3ccccc3c2)CC1 [Example 196]
EC50 [1]: < 1000 nM | IC50 [2]: < 100 nM

N#CN1CC[C@H](C(=O)NCc2ccccc2C(=O)NC2(c3cc(-c4cnn(C5CC5)c4)cc4ncccc34)CC2)C1 [Example 419]
EC50 [1]: < 1000 nM | IC50 [2]: < 100 nM

C[C@H](NC(=O)c1ccccc1CNC(=O)C(=O)NCC#N)c1cc(C(F)(F)F)nc2ccccc12 [Example 327]
EC50 [1]: 1000 to 10000 nM | IC50 [2]: < 100 nM

CN(C)CCn1cc(-c2cc(F)cc(C3(NC(=O)c4ccccc4CNC(=O)C(=O)NCC#Cc4nccs4)CC3)c2)cn1 [Example 251]
EC50 [1]: < 1000 nM | IC50 [2]: < 100 nM

Cc1n[nH]c(C)c1-c1cc(C(F)(F)F)cc(C2(NC(=O)c3ccccc3CNC(=O)C(=O)NCC#N)CC2)c1 [Example 476]
EC50 [1]: 1000 to 10000 nM | IC50 [2]: 100 to 1000 nM

Cn1ccnc1C#CCNC(=O)C(=O)NCc1ccccc1C(=O)NC1(c2ccc3ccccc3c2)CC1 [Example 197]
EC50 [1]: < 1000 nM | IC50 [2]: < 100 nM

N#CCNC(=O)C(=O)NCc1ccccc1C(=O)NC1(c2cc(-c3cnn(C4CC4)c3)cc(C3CC3)c2)CC1 [Example 133]
EC50 [1]: 1000 to 10000 nM | IC50 [2]: < 100 nM

COCC1CCCN1c1cc(C2(NC(=O)c3ccccc3CNC(=O)C(=O)NCC#N)CC2)c2ccccc2c1 (centres unmarked) [Example 324]
EC50 [1]: 1000 to 10000 nM | IC50 [2]: < 100 nM

Cn1cc(-c2cc(F)cc(C3(NC(=O)c4ccccc4CNC(=O)C(=O)NCC#N)CC3)c2)cn1 [Example 235]
EC50 [1]: > 10000 nM | IC50 [2]: < 100 nM

N#CCNC(=O)C(=O)NCc1ccccc1C(=O)NC1(c2cc(-c3cccs3)cc(Cl)c2F)CC1 [Example 304]
EC50 [1]: 1000 to 10000 nM | IC50 [2]: < 100 nM

Cc1nn(C(F)F)c(C)c1-c1cc(F)cc(C2(NC(=O)c3ccccc3CNC(=O)C(=O)NCC#Cc3nccs3)CC2)c1 [Example 140]
EC50 [1]: < 1000 nM | IC50 [2]: < 100 nM

N#Cc1cc(-c2cccs2)cc(C2(NC(=O)c3ccccc3CNC(=O)C(=O)NCC#Cc3nccs3)CC2)c1 [Example 129]
EC50 [1]: < 1000 nM | IC50 [2]: < 100 nM

C#CCNC(=O)C(=O)NCc1ccccc1C(=O)NC1(c2cc(Cl)cc(-c3cc4ccccc4s3)c2)CC1 [Example 445]
EC50 [1]: 1000 to 10000 nM | IC50 [2]: < 100 nM

C#CCNC(=O)C(=O)NCc1ccccc1C(=O)NC1(c2cccc3cc(F)ccc23)CC1 [Example 56]
EC50 [1]: < 1000 nM | IC50 [2]: < 100 nM

N#CCNC(=O)C(=O)NCc1ccccc1C(=O)NC1(c2cc(-c3ccc(CO)s3)cc3ccccc23)CC1 [Example 350]
EC50 [1]: < 1000 nM | IC50 [2]: < 100 nM

C#CCNC(=O)C(=O)NCc1ccccc1C(=O)NC1(c2ccc(F)c(-c3cn(C)nc3C)c2)CC1 [Example 237]
EC50 [1]: < 1000 nM | IC50 [2]: < 100 nM

C[C@@H](C#Cc1nccs1)NC(=O)C(=O)NCc1ccccc1C(=O)N[C@H](C)c1cc(F)cc(-c2cnn(C(F)F)c2)c1 [Example 496]
EC50 [1]: < 1000 nM | IC50 [2]: < 100 nM

COC(=O)/C=C/CNC(=O)C(=O)NCc1ccccc1C(=O)NC1(c2cccc3ccccc23)CC1 [Example 4]
EC50 [1]: < 1000 nM | IC50 [2]: < 100 nM

CN1C[C@H](F)CC1COc1ccc(CNC(=O)C(=O)NCC#N)c(C(=O)NC2(c3cc(-c4cnn(C5CC5)c4)cc4ccccc34)CC2)c1 (some centres unmarked) [Example 322]
EC50 [1]: < 1000 nM | IC50 [2]: < 100 nM

O=C(NCC#Cc1ccc(C(F)(F)F)cn1)C(=O)NCc1ccccc1C(=O)NC1(c2ccc3ccccc3c2)CC1 [Example 189]
EC50 [1]: < 1000 nM | IC50 [2]: < 100 nM

O=C(NCC#Cc1nccs1)C(=O)NCc1ccccc1C(=O)NC1(c2cc(Cl)cc(-c3cncs3)c2)CC1 [Example 446]
EC50 [1]: < 1000 nM | IC50 [2]: < 100 nM

CS(=O)(=O)n1cc(-c2cc(C3(NC(=O)c4ccccc4CNC(=O)C(=O)NCC#N)CC3)c3ccccc3c2)cn1 [Example 356]
EC50 [1]: 1000 to 10000 nM | IC50 [2]: < 100 nM

C#CCNC(=O)C(=O)NCc1ccccc1C(=O)NC1(c2cc(Cl)cc(-c3cnc(C(F)(F)F)nc3)c2)CC1 [Example 71]
EC50 [1]: < 1000 nM | IC50 [2]: < 100 nM

C#CCNC(=O)C(=O)NCc1ccccc1C(=O)NC1(c2cccc3nn(C)cc23)CC1 [Example 342]
EC50 [1]: < 1000 nM | IC50 [2]: < 100 nM

COc1ccc(-c2cc(C3(NC(=O)c4ccccc4CNC(=O)C(=O)NCC#N)CC3)c3ccccc3c2)s1 [Example 351]
EC50 [1]: < 1000 nM | IC50 [2]: < 100 nM

COc1cccnc1C#CCNC(=O)C(=O)NCc1ccccc1C(=O)NC1(c2ccc3nn(C)cc3c2)CC1 [Example 270]
EC50 [1]: < 1000 nM | IC50 [2]: < 100 nM

C#CCNC(=O)C(=O)NCc1ccccc1C(=O)NC1(c2cccc3nc(Cl)ccc23)CC1 [Example 387]
EC50 [1]: < 1000 nM | IC50 [2]: < 100 nM

C#CCNC(=O)C(=O)NCc1ccccc1C(=O)NC1(c2ccc(OC)c(Br)c2)CC1 [Example 230]
EC50 [1]: < 1000 nM | IC50 [2]: < 100 nM

CN1CC(COc2ccc(CNC(=O)C(=O)NCC#N)c(C(=O)NC3(c4cccc5ccccc45)CC3)c2)C1 [Example 326]
EC50 [1]: 1000 to 10000 nM | IC50 [2]: < 100 nM

O=C(NC/C=C1\CCOC1=O)C(=O)NCc1ccccc1C(=O)NC1(c2cccc3ccccc23)CC1 [Example 153]
EC50 [1]: < 1000 nM | IC50 [2]: < 100 nM

O=C(NCC#Cc1cncnc1)C(=O)NCc1ccccc1C(=O)NC1(c2cccc3ccccc23)CC1 [Example 158]
EC50 [1]: < 1000 nM | IC50 [2]: < 100 nM

COc1cc(C#N)ccc1C#CCNC(=O)C(=O)NCc1ccccc1C(=O)NC1(c2ccc3ccccc3c2)CC1 [Example 88]
EC50 [1]: < 1000 nM | IC50 [2]: < 100 nM

O=C(NCC#Cc1nccs1)C(=O)NCc1ccccc1C(=O)NC1(c2cc(Cl)cc(-c3cnc(C4CC4)nc3)c2)CC1 [Example 83]
EC50 [1]: < 1000 nM | IC50 [2]: < 100 nM

N#CCNC(=O)C(=O)NCc1ccccc1C(=O)NC1(c2ccc3sc4ccccc4c3c2)CC1 [Example 369]
EC50 [1]: 1000 to 10000 nM | IC50 [2]: < 100 nM

N#CCNC(=O)C(=O)NCc1ccccc1C(=O)NC1(c2cccc(C(F)(F)F)c2Cl)CC1 [Example 370]
EC50 [1]: 1000 to 10000 nM | IC50 [2]: 100 to 1000 nM

NC(=O)C(=O)NCc1ccccc1C(=O)NC1(c2cc(-c3cnn(C4CC4)c3)cc3ccccc23)CC1 [Example 321]
EC50 [1]: 1000 to 10000 nM | IC50 [2]: < 100 nM

C#CCNC(=O)C(=O)NCc1ccccc1C(=O)NC1(c2cc(OC)c3nn(C4CC4)cc3c2)CC1 [Example 343]
EC50 [1]: < 1000 nM | IC50 [2]: < 100 nM

C#CCNC(=O)C(=O)NCc1ccccc1C(=O)NC1(c2cc(OC)cc(-c3cnn(C4CC4)c3)c2)CC1 [Example 244]
EC50 [1]: < 1000 nM | IC50 [2]: < 100 nM

C#CCNC(=O)C(=O)NCc1ccc(C(=O)N2CC(F)(F)C2)cc1C(=O)NC1(c2ccc(F)c3ccccc23)CC1 [Example 61]
EC50 [1]: < 1000 nM | IC50 [2]: < 100 nM

COC(=O)/C(C)=C/CNC(=O)C(=O)NCc1ccccc1C(=O)N[C@H](C)c1cccc2ccccc12 [Example 24]
EC50 [1]: < 1000 nM | IC50 [2]: < 100 nM

N#CCNC(=O)C(=O)NCc1ccccc1C(=O)NC1(c2ccc(F)c(-c3cccs3)c2)CC1 [Example 219]
EC50 [1]: 1000 to 10000 nM | IC50 [2]: < 100 nM

N#CN1CC(CNC(=O)C(=O)NCc2ccccc2C(=O)NC2(c3cccc4ccccc34)CC2)C1 [Example 435]
EC50 [1]: < 1000 nM | IC50 [2]: < 100 nM

N#CCNC(=O)C(=O)NCc1ccccc1C(=O)NC1(c2cccc(-c3ccc(F)cc3)c2Cl)CC1 [Example 380]
EC50 [1]: > 10000 nM | IC50 [2]: 100 to 1000 nM

C[C@@H](C#Cc1nccs1)NC(=O)C(=O)NCc1ccccc1C(=O)NC1(c2ccc3c(cnn3C)c2)CC1 [Example 346]
EC50 [1]: < 1000 nM | IC50 [2]: < 100 nM

C#CCNC(=O)C(=O)NCc1ccccc1C(=O)NC1(c2cc(F)cc(-c3cn(C)nc3C)c2)CC1 [Example 234]
EC50 [1]: < 1000 nM | IC50 [2]: < 100 nM

O=C(NC/C=C/C(=O)N1CCCO1)C(=O)NCc1ccccc1C(=O)NC1(c2cccc3ccccc23)CC1 [Example 568]
EC50 [1]: 1000 to 10000 nM | IC50 [2]: 100 to 1000 nM
